Test results reported in US20180147171A1, “TRANS10:CIS12 ISOMER OF CONJUGATED LINOLEIC ACID AS A THERAPEUTIC AND PREVENTATIVE AGENT FOR HYPERTENSION SPECIFIC TO PREGNANCY” (Wisconsin Alumni Research Foundation, priority 2012, published 2018).

Legend:
CX43 = assay: Phosphorylation of CX43 at specific inhibitory sites in VEGF-treated uterine artery endothelial cells; format: cell-based, sheep; conditions: cultured uterine artery endothelial cells from pregnant animals, VEGF inhibited, with rescue agent
[1] = system: ovine uterine artery endothelial cells from pregnant sheep (P-UAEC); assay: Fura-2 [Ca2+]i imaging: ATP stimulated Ca2+ burst number after VEGF pretreatment, with or without rescue agent; format: cell-based; conditions: for rescue from VEGF165 mediated inhibition of subsequent ATP stimulated Ca2+ bursts: rescue agent 10 uM added right before VEGF165 10 ng/ml, second ATP 100 uM response as % of first; for rescue from VEGF165 mediated inhibition of subsequent ATP stimulated Ca2+ bursts / CLA rescue of VEGF inhibitory effects on subsequent ATP burst number: 30 min; for CLA rescue of VEGF inhibitory effects on subsequent ATP burst number: t10:c12 CLA 50 uM added before VEGF165 10 ng/ml, compared with PP2 10 uM
Source text: Studies in ovine uterine artery endothelial cells from pregnant sheep (P-UAEC). P-UAEC are a well-established cell model of endothelial cells isolated from uterine arteries and maintained in culture to passage 3 before freezing for future use.
Isolation of UAECs: Uterine arteries were obtained from Polypay and mixed Western breed nonpregnant sheep (n=4) and pregnant ewes (n=6) at 120-130 days of gestation during nonsurvival surgery, as described in the art. Procedures for animal handling and protocols for experimental procedures were approved by the University of Wisconsin-Madison Research Animal Care Committees of both the School of Medicine and Public Health and the College of Agriculture and Life Sciences and follow the recommended American Veterinary Medicine Association guidelines for humane treatment and euthanasia of laboratory farm animals.
Fura-2 [Ca^2+]i Imaging Studies: Uterine artery endothelial cells plated to 35-mm dishes with glass coverslip windows (MatTek Corp.) were grown to the required density (20%-100%, as described) and then loaded with 5 μM Fura-2 AM in Krebs buffer (125 mM NaCl, 5 mM KCl, 1 mM MgSO4, 1 mM KH2PO4, 6 mM glucose, 2 mM CaCl2, and 25 mM HEPES, pH 7.4) for 45 min. After rinsing and incubating a further 30 min to complete ester hydrolysis, Fura-2 loading was verified by viewing at 380-nm ultraviolet excitation on a Nikon inverted microscope (TS100; Melville, N.Y.). About 60 cells were then preselected and video recordings commenced using alternate excitation at 340 and 380 nm at 1-sec intervals and measuring emitted light using a digital camera. From the ratio of emission at 510 nm detected at the two excitation wavelengths, and by comparison to a standard curve established for the same settings using buffers of known free Ca^2+ concentration, the [Ca^2+]i was then calculated for individual cells in real time using InCyt Im2 software (Intracellular Imaging Inc., Cincinnati, Ohio).
Data in graphs is calculated comparing the cells repeated burst patterns before and after repeat treatment. ATP 100 μM 30 min followed by ATP 100 uM 30 min gives a marginal decline in number of Ca^2+ bursts (as defined in the art). However other agents activating protein kinases such as ERK and Src cause closure of CX43 and so loss of associated bursts. Therefore to perform the analysis, ATP stimulation is performed once to establish an uninhibited response for each cell. Then the inhibitory treatment under study is given (VEGF, 10 ng/ml or equivalent). After 30 minutes the second ATP treatment begins and burst response is expressed as % of the first ATP response. To then further test the protective or rescue effect of kinase inhibitors we follow the same protocol but add the rescue agent right before the VEGF. U0126 is an MEK/ERK pathway blocked, PP2 is a Src pathway blocker, and CLA is the test compound.

ERK and Src signaling = conditions: cancer cells; earlier finding; cited from earlier work

Compound | phosphorylation of CX43 at specific inhibitory sites (CX43) | rescue from VEGF165 mediated inhibition of subsequent ATP stimulated Ca2+ bursts ([1]; FIG. 3) | CLA rescue of VEGF inhibitory effects on subsequent ATP burst number ([1]; FIG. 4) | further results
CC(C)(C)n1nc(-c2ccc(Cl)cc2)c2c(N)ncnc21 [PP2] | reversal of the phosphorylation of CX43 | can rescue the cells | – | –
N#CC(=C(/N)Sc1ccccc1N)/C(C#N)=C(\N)Sc1ccccc1N [U0126] | reversal of the phosphorylation of CX43 | can rescue the cells | – | –
CCCCCC/C=C/C=C\CCCCCCCC(=O)O [c9:t11 CLA] | – | – | have not achieved rescue | –
CCCCC/C=C\C=C\CCCCCCCCC(=O)O [t10:c12 CLA, t10:c12 conjugated linoleic acid] | – | – | can achieve the same rescue effect as PP2 | inhibition of ERK and Src kinase signaling pathways (ERK and Src signaling): can inhibit these pathways; CLA rescue of VEGF inhibitory effects on subsequent ATP burst number ([1]; FIG. 4, listed as CLA): improvement of function beyond rescue
VEGF | – | – | – | effect of factor pretreatment on subsequent ATP stimulated Ca2+ bursts ([1]; 30 min pretreatment, 10 ng/ml, FIG. 3): inhibitory effects
